Measurements published in US9757356B2 (CHONNAM NATIONAL UNIVERSITY HOSPITAL, priority 2015, dated 2017).

Columns and labels:
MI animal model [1] = assay: Echocardiography of cardiac function in MI animal model; format: in vivo, rat; details: MI rats, 0.2 mg/body weight intra-abdominally daily
Method: (§1) To induce the onset of myocardial infarction, first of all, rats weighing 200 to 230 g were anesthetized with ketamine (50 mg/kg) and xylazine (5 mg/kg), and the chests of the rats were shaved and disinfected. An anesthesia ventilator was installed to manage the airway of the rat, and the chest was incised to expose the heart. Then, a cardiac muscle was sutured in a region of the left anterior descending artery (LAD) to block a blood flow, thereby establishing an MI animal model.
(§2) After two weeks, the rats were anesthetized, and subjected to echocardiography to examine the cardiac functions.
In this case, the indices have the following meanings. • IVSd; thickness of interventricular septum (diastole) • IVSs; thickness of interventricular septum (systole) • LVIDd; thickness of left ventricular internal dimension (diastole) • LVIDs; thickness of left ventricular internal dimension (systole) • LVPWd; left ventricle posterior wall thickness (diastole) • LVPWs; left ventricle posterior wall thickness (systole) • EF; ejection fraction • FS; fractional shortening

MI animal model [2] = assay: Myocardial fibrosis by Masson's trichrom staining in MI animal model; format: in vivo, rat; details: MI rats, MI+BIO vs MI+vehicle, FIG. 4
Method: as §1, §2
To quantify myocardial fibrosis, the heart tissues were also removed, fixed with formalin, embedded in a paraffin block, and then microtomed into sections having a thickness of 10 μm. Thereafter, the sections were histologically stained using a Masson's trichrom method.

[3] = tested on: macrophage cell line RAW264.7; assay: iNOS expression in LPS-stimulated macrophages, Western blotting; format: cell-based, mouse; details: RAW264.7, LPS 100 ng/mL, BIO 0, 1, 2.5 and 5 μM, FIG. 5
Method: A mouse macrophage cell line RAW264.7 (Korean Cell Line Bank) was cultured in a DMEM broth supplemented with 10% fetal bovine serum, and lipopolysaccharide (LPS) was added at a concentration of 100 ng/mL to the culture broth to initiate inflammation of macrophages.

cardiomyocytes (CMs) = assay: BrdU cell proliferation assay, cardiomyocytes in cardiomyocyte/cardiac fibroblast co-culture; format: cell-based, rat; details: BIO 2.5 μM and 5 μM, after 2 days and 5 days, FIG. 1
Method: (§3) Hearts of two-day-old rats were removed and washed with physiological saline. Thereafter, left cardiac muscles were separated from the hearts in a sterilization cabinet, and microtomed into segments. These myocardial tissues were added to a collagenase enzyme solution, reacted at 37° C. while stirring, and then centrifuged to collect only the supernatant which were then kept in a cell culture flask. After an hour, cardiomyocytes which floated when the supernatant was transferred to a new culture flask were separated from cardiac fibroblasts attached to the bottom of the cell culture flask. At this point, both the cardiomyocytes and the cardiac fibroblasts were cultured in a Dulbecco's modified Eagle's medium (DMEM) supplemented with 10% fetal bovine serum (FBS) and then used for experiments.
(§4) After 2 days and 5 days, the proliferation of cells was quantified.
(§5) To determine the level of new DNA synthesis, a cell proliferation assay was performed by adding bromodeoxyuridine (BrdU) to a cell culture broth in advance to incorporate BrdU into DNAs of cells and performing a chromogenic reaction using an anti-BrdU antibody.

MI animal model [4] = assay: Macrophage phenotype (CD68/Arg1 immunofluorescence) in cardiac muscle of MI animal model; format: in vivo, rat; details: MI rats, 2nd week after onset of myocardial infarction, FIG. 6
Method: Specifically, a slide for myocardial infarction heart tissues was treated with an anti-CD68 antibody and an anti-Arg1 antibody, and a fluorescence image was visualized using a secondary antibody. Then, the tissues were observed under a confocal microscope with a magnification of 800 times. Since the macrophages in the tissues expressed CD68, the macrophages were detected using the anti-CD68 antibody. Also, since a marker used to distinguish the characteristics of the macrophages in the tissues was iNOS in the case of the inflammatory M1 macrophages and arginase 1 (Arg1) in the case of the anti-inflammatory M2 macrophages, the macrophages were stained with an anti-inflammatory marker Arg1 for macrophages in order to determine how many the phenotype of the macrophages in the heart was converted into the M2 type at the 2nd week after the onset of myocardial infarction.

[5] = tested on: cardiac fibroblasts (cFBs); assay: BrdU cell proliferation assay, cardiac fibroblasts in cardiomyocyte/cardiac fibroblast co-culture; format: cell-based, rat
Method: as §3, §4, §5
Then, cells which were not stained with cardiac troponin I but stained with DAPI were regarded as cardiac fibroblasts and then counted.

GSK3β = biological target: T1, GSK3β (Rattus norvegicus, UniProt P18266); assay: p-GSK3β expression in cardiac fibroblasts, Western blotting; format: cell-based; details: cardiac fibroblasts, 0, 0.25, 2.5 and 5 μM for 2 days, FIG. 7
T1 construct: endogenous in cells; host or cells: cardiac fibroblasts (primary culture)
Method: Since GSK3β was in an inert state when phosphorylated, an increase in expression level of p-GSK3β was determined using Western blotting in order to evaluate the inhibition of GSK3β.

[6] = echocardiography after two weeks

T1 sequence (P18266 whole entry): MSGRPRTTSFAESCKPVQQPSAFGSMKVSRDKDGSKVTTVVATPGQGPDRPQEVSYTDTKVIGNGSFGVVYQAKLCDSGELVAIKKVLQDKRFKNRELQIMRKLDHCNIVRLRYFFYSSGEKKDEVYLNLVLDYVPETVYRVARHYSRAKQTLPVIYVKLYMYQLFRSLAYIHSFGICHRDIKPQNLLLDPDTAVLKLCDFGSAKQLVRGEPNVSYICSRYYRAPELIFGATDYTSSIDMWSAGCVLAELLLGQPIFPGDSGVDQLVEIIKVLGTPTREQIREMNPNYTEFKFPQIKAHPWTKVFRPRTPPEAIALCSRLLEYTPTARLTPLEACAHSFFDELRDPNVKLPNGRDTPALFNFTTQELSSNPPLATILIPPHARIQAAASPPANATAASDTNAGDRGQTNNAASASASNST

Row | SMILES | diastolic and systolic functions of the heart (MI animal model [1]; after two weeks, vs MI+saline) | EDV (MI animal model [1]; [6]) | EF; ejection fraction (MI animal model [1]; [6]) | ESV (MI animal model [1]; [6]) | FS; fractional shortening (MI animal model [1]; [6]) | IVSd; thickness of interventricular septum (diastole) (MI animal model [1]; [6]) | IVSs; thickness of interventricular septum (systole) (MI animal model [1]; [6]) | LVIDd; thickness of left ventricular internal dimension (diastole) (MI animal model [1]; [6]) | LVIDs; thickness of left ventricular internal dimension (systole) (MI animal model [1]; [6]) | LVPWd; left ventricle posterior wall thickness (diastole) (MI animal model [1]; [6]) | LVPWs; left ventricle posterior wall thickness (systole) (MI animal model [1]; [6]) | SV (MI animal model [1]; [6]) | fibrosis regions (blue), myocardial fibrosis (MI animal model [2]) | expression of iNOS (inflammatory marker) [3] | BrdU (+) CM/total CM, proliferation rate of dividing cardiomyocytes (cardiomyocytes (CMs)) | Arg1-expressing (anti-inflammatory M2 type) macrophages in the cardiac muscles (MI animal model [4]) | BrdU (+) cFB/total cFB, proliferation rate of dividing cardiac fibroblasts ([5]; co-culture, BIO 2.5 μM and 5 μM, FIG. 2) | expression level of p-GSK3β (inert form), GSK3β inhibition (GSK3β) | inhibitory effect on the proliferation of the cardiac fibroblasts ([5]; BIO 5 μM and 10 μM vs LiCl, same manner as Example 3, FIG. 8)
1 | O=C1Nc2cc(Br)ccc2/C1=C1/Nc2ccccc2/C1=N\O [BIO, (2′Z,3′E)-6-bromoindirubin-3′-oxime] | well preserved | 1.563 ± 0.308 | 41.313 ± 6.823 | 0.911 ± 0.251 | 18.262 ± 3.525 | 0.079 ± 0.013 | 0.084 ± 0.028 | 0.900 ± 0.066 | 0.736 ± 0.074 | 0.089 ± 0.023 | 0.115 ± 0.019 | 0.651 ± 0.116 | significantly reduced | lowered in a concentration-dependent manner | significantly increased | prevailed | significantly decreased |  | 
2 | [Cl-].[Li+] [LiCl, reference compound] |  |  |  |  |  |  |  |  |  |  |  |  |  |  |  |  |  | increased | not observed
